Data taken from article PMC9602407, “Purification, Identification and Molecular Docking of Immunomodulatory Peptides from the Heads of Litopenaeus vannamei” (Foods, 2022).
Where a SMILES comes first, the peptide text is derived from it. Where no end group is shown, it is not given here.

Key:
pepsin and trypsin = assay: In vitro gastrointestinal digestion stability (pepsin, then trypsin), read out as MRPR; format: in vitro ADME; settings: for Maximal increase of MRPR through gastrointestinal digestion compared with the untreated group: 2% (w/w) pepsin pH 2.0 37 °C 2 h, then 2% (w/w) trypsin pH 7.5 37 °C 2 h, 1 mg/mL peptide
Protocol: The macrophages were cultured in a medium (containing 90% DMEM medium, 10% FBS, and 1% double antibody) at 37 °C and 5% CO2. The MRPR was determined following to the MTT assay used by Xu et al.. The density of the log-phase cells was adjusted to 1 × 10^5 cells/mL, and 100 μL/well of cell suspension was seeded in 96-well plates and incubated overnight in an incubator (BB-150-CO2 incubator, Thermo Scientific, Waltham, MA, USA). The perimeter of the 96-well plate was filled with PBS. The old culture medium was then discarded, 200 μL of the sample solution was added (DMEM medium was used to dissolve the sample to the desired concentration), and control and blank groups were set up with DMEM medium. After incubating for 36 h, 200 μL of medium (containing 5% MTT) was added to each well instead of the original medium and cultured in the dark for 4 h. After the supernatant was discarded, 150 μL of DMSO was added, shaken for 20 min at room temperature, and the absorbance was detected at 490 nm by a microplate reader (ELx800, BioTek Instruments, Winooski, VT, USA). The MRPR (%) was calculated using the following formula:Macrophage relative proliferation rate (%) = (A1 − A3)/(A2 − A3) × 100 (1) where A1 and A2 represented the sample solution and DMEM medium with cells (sample and control group), respectively, and A3 represented DMEM medium with no cells (blank group).
For gastrointestinal digestion stability, computer simulated gastrointestinal digestion was first performed using the PeptideCutter (https://web.expasy.org/peptide_cutter/) (accessed on 20 June 2022) with a selection of pepsin (pH > 2) and trypsin. Then, six peptides (10 mg) were dissolved in 10 mL of distilled water, the pH was adjusted to pH 2.0 with 1 M HCl, and then 2% (w/w) pepsin was added and incubated at 37 °C for 2 h to simulate gastric digestion. The pH of the gastric digest was then adjusted to 5.3 with 0.9 M NaHCO3 solution and to pH 7.5 with 1 M NaOH solution. Following this, 2% (w/w) trypsin was added and incubated at 37 °C for 2 h to simulate intestinal digestion. After digestion, the digest was inactivated in a water bath at 100 °C for 10 min, centrifuged at 10,000 r/min for 10 min, and the supernatant was freeze-dried to obtain the gastric intestinal digest of each of the six synthetic peptides. The MRPR was determined using the sample without any treatment as the control.

[1] = design: method as in doi:10.1016/j.jff.2020.103887; settings: 100 μg/mL; cited from earlier work
TNF-α secretion = test system: TNF-α secretion; design: method as in doi:10.1016/j.jff.2020.103887; settings: 100 μg/mL; cited from earlier work
splenic lymphocytes = test system: splenic lymphocytes; design: method as in doi:10.1016/j.jff.2020.103887; settings: 100 μg/mL; cited from earlier work

## CSCC[C@H](NC(=O)CNC(=O)[C@@H]1CCCN1)C(=O)N[C@@H](CCCNC(=N)N)C(=O)O [PGMR] (H-PGMR-OH)
Pepsin and trypsin; pepsin then trypsin, 37 °C, 2 h each, versus untreated group
  Change of activity (MRPR) through gastrointestinal digestion, in words: decreased, but was not significantly different

## SAGFPEGF [SAGFPEGF]
Pepsin and trypsin; 2% (w/w) pepsin, pH 2.0, 37 °C, 2 h, versus untreated
  Increase of MRPR in the gastric digestion: 11.23%

## RGPPP [Pseudostellaria heterophylla peptide from the literature]
[1]
  Cytokinesis rate increased to: 123.81%
TNF-α secretion
  TNF-α secretion upregulated to: 827.24 pg/mL
Splenic lymphocytes
  Stimulation index on splenic lymphocytes: 1.27

## PSPFPYFT [PSPFPYFT]
Pepsin and trypsin; 2% (w/w) pepsin, pH 2.0, 37 °C, 2 h, read-out MRPR, mean ± SD
  MRPR after the action of pepsin: 143.06 ± 7.71%
Pepsin and trypsin; after pepsin step, 2% (w/w) trypsin, pH 7.5, 37 °C, 2 h, read-out MRPR, mean ± SD
  MRPR after the action of trypsin: 148.80 ± 0.41%

## GPQGPPGH [GPQGPPGH]
Pepsin and trypsin; read-out MRPR
  Maximal increase of MRPR through gastrointestinal digestion compared with the untreated group: 4.17%

## N=C(N)NCCC[C@H](NC(=O)[C@H](CCC(N)=O)NC(=O)[C@@H](N)Cc1c[nH]c2ccccc12)C(=O)O [WQR] (H-Trp-Gln-Arg-OH)
Pepsin and trypsin; read-out MRPR
  Maximal increase of MRPR through gastrointestinal digestion compared with the untreated group: 7.36%
